The values below come from PubChem BioAssay AID652002 (Sanford-Burnham Center for Chemical Genomics, 2013).

The target of one assay is NB7+Caspase-8. In words: TRAIL sensitizers in caspase-8 expressing neuroblastoma cells, dose response, NB7 cells plus caspase-8, luminescence, panel (AID 652002). To be noted: NB7 neuroblastoma +caspase-8, TRAIL sensitization, luminescence viability, with TRAIL.
Test in assay [1]: as above
Conditions: NB7 neuroblastoma +caspase-8, no TRAIL, compound-alone cytotoxicity counter-screen, luminescence viability, NB7+Caspase-8. Background: Counterscreens check selectivity or assay interference.

The target in assay [2] is Tumor necrosis factor receptor superfamily member 10B (Homo sapiens) (UniProt O14763). The description is as above. Conditions: NB7 neuroblastoma +caspase-8, TRAIL sensitization, luminescence viability; NB7+Caspase-8; with TRAIL, mean of runs.
The mark [3] stands for this setting: run 1, single replicate panel EC50.
The mark [4] stands for this setting: run 2, single replicate panel EC50.

By EC50 is commonly meant the concentration needed to bring the measured effect to its halfway point.

Structures are written as SMILES. The source made the active and inactive calls. How the calls were made is not given here. Bounds are passed on as bounds.

Tumor necrosis factor receptor superfamily member 10B (Homo sapiens), sequence (O14763 whole entry, looked up): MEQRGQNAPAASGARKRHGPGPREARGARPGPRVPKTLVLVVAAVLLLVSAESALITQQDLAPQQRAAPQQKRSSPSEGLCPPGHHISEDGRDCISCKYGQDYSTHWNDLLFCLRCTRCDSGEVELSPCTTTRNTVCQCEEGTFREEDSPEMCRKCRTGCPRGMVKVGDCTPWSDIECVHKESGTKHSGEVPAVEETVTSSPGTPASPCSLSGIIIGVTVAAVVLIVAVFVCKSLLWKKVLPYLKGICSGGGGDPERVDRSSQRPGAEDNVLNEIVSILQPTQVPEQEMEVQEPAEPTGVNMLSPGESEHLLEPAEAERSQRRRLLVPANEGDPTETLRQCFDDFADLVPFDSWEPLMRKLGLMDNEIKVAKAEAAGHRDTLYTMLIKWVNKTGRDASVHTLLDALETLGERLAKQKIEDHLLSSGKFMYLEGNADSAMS

As to `COc1ccccc1C=NNC(=O)NN=Cc1ccccc1OC`, the EC50 on NB7+Caspase-8 (setting [3]) is more than 12.5 µM; on NB7+Caspase-8 (setting [4]), 7.21 µM; in assay [1] (setting [3]), 8.5 µM; in assay [1] (setting [4]), 10.3 µM. Further, the EC50 result in assay [1] (mean of runs) and in assay [2] was “inactive” throughout.

Turning to `Cc1cccc(CC(=O)Nc2cc(C)c3c(=O)oc4ccccc4c3n2)c1`, the EC50 is more than 12.5 µM at NB7+Caspase-8 (setting [3]); more than 12.5 µM at NB7+Caspase-8 (setting [4]); > 12.5 µM (inactive) in assay [1] (mean of runs); more than 12.5 µM in assay [1] (setting [3]); more than 12.5 µM in assay [1] (setting [4]); > 12.5 µM (inactive) in assay [2].

Turning to `CCOC(=O)c1sc(NC(=O)Nc2ccc(F)cc2)nc1C`, the concentration giving a half-maximal response (EC50) was more than 12.5 µM on NB7+Caspase-8 (setting [3]); more than 12.5 µM at NB7+Caspase-8 (setting [4]); > 12.5 µM (inactive) in assay [1] (mean of runs); more than 12.5 µM in assay [1] (setting [3]); more than 12.5 µM in assay [1] (setting [4]); > 12.5 µM (inactive) in assay [2].

`Cc1ccc(NC(=O)c2cc3ccccc3o2)nc1`: the EC50 at NB7+Caspase-8 (setting [3]) is more than 12.5 µM; at NB7+Caspase-8 (setting [4]), 8.86 µM; in assay [1] (setting [3]), 7.34 µM; in assay [1] (setting [4]), 11 µM. The EC50 entry in assay [1] (mean of runs) and in assay [2] was “inactive” throughout.

Consider `COc1ccc(OCC(=O)N/N=C/C=C/c2ccccc2)cc1`, for which the half-maximal effective concentration (EC50) at NB7+Caspase-8 (setting [3]) is more than 12.5 µM; on NB7+Caspase-8 (setting [4]), 1.96 µM; in assay [1] (setting [3]), 10.3 µM; in assay [1] (setting [4]), more than 12.5 µM. Further, the EC50 result in assay [1] (mean of runs) and in assay [2] was “inactive” in each case.

Regarding `CC(C)Cc1nc2oc3c(Cl)ncnc3c2c2c1CCCC2`, the EC50 on NB7+Caspase-8 (setting [3]) is more than 12.5 µM; at NB7+Caspase-8 (setting [4]) it was more than 12.5 µM; in assay [1] (mean of runs), > 12.5 µM (inactive); in assay [1] (setting [3]), more than 12.5 µM; in assay [1] (setting [4]), more than 12.5 µM; in assay [2], > 12.5 µM (inactive).

Consider `Cc1cccc2nc(=S)n(C(=O)c3ccco3)n12`, for which the EC50 at NB7+Caspase-8 (setting [3]) was more than 12.5 µM; on NB7+Caspase-8 (setting [4]), more than 12.5 µM; in assay [1] (mean of runs), > 12.5 µM (inactive); in assay [1] (setting [3]) it was more than 12.5 µM; in assay [1] (setting [4]) it was more than 12.5 µM; in assay [2], > 12.5 µM (inactive).

As for `O=C(NC1=NCCS1)c1cc2ccccc2o1`, the 50% effective concentration (EC50) on NB7+Caspase-8 (setting [3]) was 5.35 µM; on NB7+Caspase-8 (setting [4]), 10.4 µM; in assay [1] (setting [3]), more than 12.5 µM; in assay [1] (setting [4]), 4.22 µM. Moreover, the EC50 result in assay [1] (mean of runs) and in assay [2] was “inactive” each time.

Regarding `Cc1nc2cc(NC(=O)Nc3cccc([N+](=O)[O-])c3)ccc2n1C`, the half-maximal effective concentration (EC50) is more than 12.5 µM on NB7+Caspase-8 (setting [3]); 6.56 µM at NB7+Caspase-8 (setting [4]); > 12.5 µM (inactive) in assay [1] (mean of runs); more than 12.5 µM in assay [1] (setting [3]); more than 12.5 µM in assay [1] (setting [4]). Also, the EC50 entry in assay [2] is “inactive”.

Regarding `O=C(Nc1ccc2c(c1)OCO2)c1ccc2c(c1)OCO2`, the EC50 was more than 12.5 µM on NB7+Caspase-8 (setting [3]), 5.17 µM on NB7+Caspase-8 (setting [4]), 6.92 µM in assay [1] (setting [3]) and 11.2 µM in assay [1] (setting [4]). In addition, the EC50 entry in assay [1] (mean of runs) and in assay [2] was “inactive” in each case.

For `Cc1ccc2oc(-c3cccc(N)c3)nc2c1`, the 50% effective concentration (EC50) on NB7+Caspase-8 (setting [3]) is more than 12.5 µM; on NB7+Caspase-8 (setting [4]) it was 5.69 µM; in assay [1] (setting [3]) it was 4.71 µM; in assay [1] (setting [4]) it was 7.88 µM. In addition, the EC50 result in assay [1] (mean of runs) and in assay [2] was “inactive” in each case.

Consider `COc1ccc(-c2cc(C(=O)N/N=C/c3cccnc3)c3ccccc3n2)cc1`, for which the half-maximal effective concentration (EC50) was more than 12.5 µM at NB7+Caspase-8 (setting [3]); more than 12.5 µM on NB7+Caspase-8 (setting [4]); 11.3 µM in assay [1] (setting [3]); more than 12.5 µM in assay [1] (setting [4]); > 12.5 µM (inactive) in assay [2]. In addition, in assay [1] (mean of runs), the EC50 result is “inactive”.

As for `COc1ccc(/C=N/Nc2nc3ccccc3c(=O)n2-c2ccccc2)cc1OC`, the concentration giving a half-maximal response (EC50) on NB7+Caspase-8 (setting [3]) is more than 12.5 µM; on NB7+Caspase-8 (setting [4]), 9.41 µM; in assay [1] (setting [3]), 7.35 µM; in assay [1] (setting [4]) it was 9.86 µM. Further, the EC50 entry in assay [1] (mean of runs) and in assay [2] was “inactive” each time.
